TGI and GI50 data for 22 compounds are collected here from PubChem BioAssay (NCI).

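A five-concentration, 48-hour dose response in 96-well plates underlies each endpoint, interpolated linearly between surrounding concentrations. GI50: concentration for 50% inhibition of growth. The concentration for full growth arrest is given as TGI.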

Some test systems named below: 786-0 renal; A498 renal; CAKI-1 renal; HCT-15 colon; SF-295 CNS; SNB-75 CNS; HOP-92 NSCLC; SK-MEL-5 melanoma.
Common to all, as to test: NCI-60 cell line screen, 48 h

Take `O=c1c2ccccc2c(=O)c2c1cc(Cl)c1[nH]c3c([nH]c12)c(Cl)cc1c(=O)c2ccccc2c(=O)c13`: the TGI in the test with 786-0 renal, in the test with A498 renal, with CAKI-1 renal, in the test on HCT-15 colon, with SF-295 CNS and in the test with SNB-75 CNS was more than 100 µM in each case.

As to `N#CCC(=O)N/N=C1\C(=O)N(c2ccc(Cl)cc2)C(=O)C(=O)C1c1nc2ccccc2o1` (centres undefined), the TGI in the test on 786-0 renal, with A498 renal, in the test on CAKI-1 renal, in the test on HCT-15 colon, with HOP-92 NSCLC and in the test with SF-295 CNS was more than 100 µM in each case. In addition, the TGI with SK-MEL-5 melanoma and in the test on SNB-75 CNS was more than 100 µM in each case.

On to `Cc1cc(NS(=O)(=O)c2ccc(NC(=O)c3cccc4c(Nc5ccc(S(=O)(=O)Nc6cc(C)on6)cc5)c5ccccc5nc34)cc2)no1`, for which the TGI was 89.8 µM with 786-0 renal; more than 100 µM with A498 renal; more than 100 µM with CAKI-1 renal; more than 100 µM in the test on HCT-15 colon; 41 µM in the test on HOP-92 NSCLC; more than 100 µM in the test on SF-295 CNS. Also, the figures for the TGI in the test on SK-MEL-5 melanoma and in the test with SNB-75 CNS were more than 100 µM and 77.4 µM, respectively.

As for `COc1cccc(NC(=O)CC(=O)N2NC(C)C(N=Nc3cccc(C(=O)O)c3)C2=O)c1` (centres undefined), the TGI in the test with 786-0 renal, in the test with A498 renal, in the test on CAKI-1 renal, in the test on HOP-92 NSCLC, in the test on SF-295 CNS and in the test on SK-MEL-5 melanoma was more than 100 µM throughout. The compound further returned a TGI with SNB-75 CNS of more than 100 µM.

In the case of `C[C@H]1CC(=O)C2=CCCC3(SCCCS3)[C@@H]2[C@H]1CO`, the TGI with 786-0 renal, with A498 renal, in the test with CAKI-1 renal, with HOP-92 NSCLC, in the test on SF-295 CNS and in the test with SK-MEL-5 melanoma was more than 100 µM in each case. In addition, the TGI with SNB-75 CNS was more than 100 µM.

In the case of `CCN(CC)CCNC(=O)c1cccc2cc3ccccc3nc12`, the TGI in the test on 786-0 renal is 32 µM; in the test on A498 renal, 22.2 µM; in the test with CAKI-1 renal, more than 100 µM; in the test with HCT-15 colon, 32.5 µM; in the test with HOP-92 NSCLC it was 27.8 µM; in the test on SF-295 CNS it was 37.1 µM. For the same compound, the TGI in the test with SK-MEL-5 melanoma turned out to be 17.1 µM; with SNB-75 CNS it was 21.6 µM.

`O=C(O)C#CCO`: the TGI in the test with 786-0 renal, with A498 renal, in the test on CAKI-1 renal, in the test on HCT-15 colon, in the test on HOP-92 NSCLC and in the test on SF-295 CNS was more than 100 µM in each case. The TGI in the test with SK-MEL-5 melanoma and with SNB-75 CNS was more than 100 µM each time.

As for `NCC(NC(=O)OCc1ccccc1)C(=O)O` (centres undefined), the TGI in the test with 786-0 renal, in the test with A498 renal, in the test on CAKI-1 renal, in the test on HCT-15 colon, in the test on HOP-92 NSCLC and in the test on SF-295 CNS was more than 50 µM each time. The TGI with SK-MEL-5 melanoma and with SNB-75 CNS was more than 50 µM in each case.

For `Cc1cc(C(=O)N2CCN(Cc3ccccc3)CC2)c(C)o1`, the TGI with 786-0 renal, with A498 renal, in the test with CAKI-1 renal, in the test with HCT-15 colon, in the test on HOP-92 NSCLC and in the test with SF-295 CNS was more than 100 µM each time. In addition, the TGI in the test on SK-MEL-5 melanoma and with SNB-75 CNS was more than 100 µM in each case.

In the case of `CN(c1ccccc1)C1C(=O)N(c2ccccc2)C1/C=C/c1ccccc1` (centres undefined), the TGI with 786-0 renal, in the test with A498 renal, in the test on CAKI-1 renal, with HOP-92 NSCLC, in the test with SF-295 CNS and in the test with SK-MEL-5 melanoma was more than 100 µM in each case. The compound also showed a TGI in the test on SNB-75 CNS of more than 100 µM.

For the compound `Cc1cc(C)cc(Sc2c([N+](=O)[O-])ncn2C)c1`, the TGI with 786-0 renal was 76.8 µM; in the test on A498 renal, 77.1 µM; in the test on CAKI-1 renal it was 89.2 µM; in the test on HOP-92 NSCLC it was 41.7 µM; in the test with SF-295 CNS, 70.8 µM; in the test on SK-MEL-5 melanoma it was 26.7 µM. The TGI in the test with SNB-75 CNS is 62.5 µM.

As for `CCC[CH2][Sn]([CH2]CCC)([O]C(=O)c1nccnc1N)[O]C(=O)c1nccnc1N`, the GI50 in the test with 786-0 renal is 0.652 µM; in the test with A498 renal, 0.819 µM; in the test on CAKI-1 renal, 0.226 µM; with HCT-15 colon, 1.15 µM; in the test on HOP-92 NSCLC, 1.16 µM; in the test on SF-295 CNS it was 1.26 µM. Further, the GI50 is 1.24 µM in the test with SK-MEL-5 melanoma and 0.87 µM with SNB-75 CNS. For the same compound, the TGI with 786-0 renal was determined as 1.91 µM; in the test with A498 renal it was 2.07 µM; in the test with CAKI-1 renal it was 1.77 µM; in the test on HCT-15 colon, 2.37 µM; in the test on HOP-92 NSCLC, 2.43 µM; with SF-295 CNS, 2.52 µM. Also, the TGI came out at 2.49 µM with SK-MEL-5 melanoma and 2.12 µM in the test on SNB-75 CNS.

Regarding `CN(C)CCN=Cc1c2ccccc2c(=O)n2c1oc1ccccc12`, the GI50 was 11.6 µM in the test on 786-0 renal; 3.62 µM in the test on CAKI-1 renal; 5.37 µM in the test on HCT-15 colon; 12.3 µM in the test on HOP-92 NSCLC; 2.89 µM in the test with SF-295 CNS; 2.89 µM in the test with SK-MEL-5 melanoma. Also, the GI50 with SNB-75 CNS is 7.55 µM. Moreover, the TGI was found to be 25.3 µM in the test with 786-0 renal; 15.2 µM in the test on CAKI-1 renal; 22.1 µM in the test on HCT-15 colon; 44.1 µM in the test with HOP-92 NSCLC; 9.71 µM with SF-295 CNS; 16.1 µM with SK-MEL-5 melanoma. Further, the TGI in the test with SNB-75 CNS came to 22.2 µM.

For the compound `O=C(O)C1CCCCN1C(=O)c1ccccc1` (centres undefined), the TGI in the test with 786-0 renal, in the test with A498 renal, in the test with HCT-15 colon, in the test on HOP-92 NSCLC, with SF-295 CNS and in the test with SK-MEL-5 melanoma was more than 100 µM each time. The TGI in the test with SNB-75 CNS is more than 100 µM.

With `C=C(CS(=O)(=O)c1ccccc1)[P+](c1ccccc1)(c1ccccc1)c1ccccc1`, the TGI in the test on 786-0 renal was 47.3 µM; in the test with A498 renal, more than 100 µM; in the test on CAKI-1 renal it was 65.9 µM; in the test on HCT-15 colon, more than 100 µM; in the test on HOP-92 NSCLC, 65.6 µM; in the test with SF-295 CNS, 50 µM. Moreover, the TGI with SK-MEL-5 melanoma came to 29.1 µM; with SNB-75 CNS it was 67.3 µM.

Take `O=C(O)CCC1(Br)CCCCC(Br)C1=O` (centres undefined): the TGI in the test with 786-0 renal, in the test on A498 renal, with CAKI-1 renal, with HCT-15 colon, with HOP-92 NSCLC and with SF-295 CNS was more than 100 µM throughout. The TGI in the test on SK-MEL-5 melanoma and with SNB-75 CNS was more than 100 µM throughout.

As for `C/C(=N/NC(=O)C(N)=O)C(CC(C(=O)Nc1ccccc1C)/C(C)=N\NC(=O)C(N)=O)C(=O)Nc1ccccc1C` (centres undefined), the TGI in the test with 786-0 renal, in the test on A498 renal, with CAKI-1 renal, in the test with HOP-92 NSCLC, in the test on SF-295 CNS and in the test on SK-MEL-5 melanoma was more than 100 µM each time. Besides, in the test with SNB-75 CNS, the TGI was more than 100 µM.

In the case of `CC(=O)OC1C(CCl)OC(N=[N+]=[N-])C(OC(C)=O)C1OC(C)=O` (centres undefined), the TGI in the test on 786-0 renal, in the test with A498 renal, with CAKI-1 renal, in the test with HCT-15 colon, in the test with SF-295 CNS and with SK-MEL-5 melanoma was more than 100 µM in each case. Also, the TGI in the test with SNB-75 CNS is more than 100 µM.

Turning to `COC(=O)[C@@]1(C)CC[C@]2(C)CC[C@]3(C)C4=CC=C5C(=CC(=O)C(O)=C5C)[C@]4(C)CC[C@@]3(C)[C@@H]2C1`, the GI50 was 0.172 µM in the test with 786-0 renal; 0.333 µM in the test with A498 renal; 0.171 µM in the test with HCT-15 colon; 0.163 µM in the test on HOP-92 NSCLC; 0.407 µM with SF-295 CNS; 0.2 µM in the test on SK-MEL-5 melanoma. In addition, the GI50 with SNB-75 CNS is 0.313 µM. The TGI with 786-0 renal worked out at 0.315 µM; in the test with A498 renal it was 0.938 µM; in the test with HCT-15 colon, 0.421 µM; in the test with HOP-92 NSCLC, 0.362 µM; in the test on SF-295 CNS it was 1.62 µM; with SK-MEL-5 melanoma it was 0.57 µM. In addition, the TGI with SNB-75 CNS is 0.854 µM.

Consider `CC(C)(C)[Si](C)(C)O/N=C\c1ccc(O[Si](C)(C)C(C)(C)C)cc1`, for which the TGI with 786-0 renal, in the test with A498 renal, with CAKI-1 renal, with HCT-15 colon, in the test on SF-295 CNS and in the test on SK-MEL-5 melanoma was more than 100 µM in each case. In addition, in the test with SNB-75 CNS, the TGI is more than 100 µM.

As to `C=C1Oc2nc3ccccc3c(=O)n2C1(C)C`, the TGI is more than 100 µM in the test on 786-0 renal; more than 100 µM in the test on A498 renal; more than 100 µM in the test with CAKI-1 renal; more than 100 µM with HCT-15 colon; more than 100 µM with HOP-92 NSCLC; more than 10 µM in the test with SF-295 CNS. The compound further had a TGI with SK-MEL-5 melanoma of more than 100 µM.

In the case of `CC(C)c1cccc(C(C)C)c1NC(=O)C(=O)C(C(=O)c1ccc2ccccc2c1)C1OC(=O)c2ccccc21` (centres undefined), the TGI with 786-0 renal, in the test with A498 renal, in the test on CAKI-1 renal, in the test on HCT-15 colon, with HOP-92 NSCLC and in the test with SF-295 CNS was more than 100 µM each time. In the test on SK-MEL-5 melanoma, the TGI was more than 100 µM.
